The values below come from US10787413B2, “Derivatives of curcuminoids and use thereof as an anticancer agent” (CHINA MEDICAL UNIVERSITY, priority 2016, dated 2020).

Data set [1] relates to MDA-MB-231 breast cancer cell. The data set is described as follows: MTT cell viability assay, MDA-MB-231 breast cancer cell. The format is cell-based, human. Particulars: Homo sapiens. On the procedure: Cell viability was evaluated by measuring the reduction in MTT to yield blue formazan. Cells were cultured in 96-well plates, allowed to attach overnight, and then treated with compounds. After treatment, MTT solution (1 mg/ml) was added to each well, and plates were incubated for another 4 h.
For orientation: Tetrazolium assays rely on reduction of a dye to a coloured formazan, in cell work by metabolically active cells.

Data set [2] concerns HCT-116 colon cancer cell. The data set is described as follows: MTT cell viability assay, HCT-116 colon cancer cell. The format is cell-based. Particulars: Homo sapiens. The method, then:
(§1) Cell viability was evaluated by measuring the reduction in MTT to yield blue formazan. Cells were cultured in 96-well plates, allowed to attach overnight, and then treated with compounds. After treatment, MTT solution (1 mg/ml) was added to each well, and plates were incubated for another 4 h. Medium were removed, blue formazan was dissolved in DMSO, and the absorbance was read at 570 nm^20.

Another data set relates to PC3 prostate cancer cell. The data set is described as follows: MTT cell viability assay, PC3 prostate cancer cell. The format is cell-based. The method, then: as §1
A further data set concerns T47D. The data set is described as follows: Cell viability, T47D breast cancer cells. In kind it is cell-based. Particulars: Homo sapiens; T47D (ER+/PR+), treated for 24 h. The method, then: as §1
Another data set deals with MCF-7. The data set is described as follows: Cell viability, MCF-7 breast cancer cells. Particulars: Homo sapiens, MCF7; MCF-7 (ER+/PR+), treated for 24 h. The format is cell-based. On the procedure: as §1
For a further data set, the system named is MDA-MB-453. The data set is described as follows: Cell viability, MDA-MB-453 breast cancer cells. The format is cell-based. Particulars: Homo sapiens; MDA-MB-453 (Her-2+), treated for 24 h. On the procedure:
as §1

A further data set deals with BT-474. The data set is described as follows: Cell viability, BT-474 breast cancer cells. In kind it is cell-based. Particulars: Homo sapiens; BT-474 (Her-2+), treated for 24 h. On the procedure: as §1
A further data set relates to SKBR-3. The data set is described as follows: Cell viability, SKBR-3 breast cancer cells. In kind it is cell-based. Particulars: Homo sapiens, SK-BR-3; SKBR-3 (Her-2+), treated for 24 h. On the procedure: as §1
In another data set the test system is MDA-MB-468. The data set is described as follows: Cell viability, MDA-MB-468 breast cancer cells. Particulars: Homo sapiens; MDA-MB-468 (Triple negative), treated for 24 h. In kind it is cell-based. On the procedure:
as §1

The next data set has as its system MDA-MB-157. The data set is described as follows: Cell viability, MDA-MB-157 breast cancer cells. In kind it is cell-based. Particulars: Homo sapiens; MDA-MB-157 (Triple negative), treated for 24 h. The method, then: as §1
Another data set concerns HS-578T. The data set is described as follows: Cell viability, HS-578T breast cancer cells. Particulars: Homo sapiens; HS-578T (Triple negative), treated for 24 h. The format is cell-based. On the procedure: as §1
Data set [3] has as its system Doxorubicin-resistant MDA-MB-231. The data set is described as follows: Cell viability, Doxorubicin-resistant MDA-MB-231. Particulars: Doxorubicin-resistant MDA-MB-231, treated for 24 h. The format is cell-based. On the procedure:
as §1

The next data set deals with MDA-MB-231 Xenograft. The data set is described as follows: In vivo antitumor activity, MDA-MB-231 Xenograft nude mice model. Particulars: treated vs untreated control group during antitumor evaluation. The method, then:
Female nu/nu mice (5 weeks old) were from National Laboratory Animal Center, Taipei, Taiwan. Mice were maintained under the procedures and guidelines from the Institutional Animal Care and Use Committee of the National Health Research Institutes, Taipei, Taiwan. All experiments were supervised under the Institutional Animal Care and Use Committee, China Medical University, Taichung, Taiwan. MDA-MB-231 breast cancer cells (5×10^6 cells per mouse) were suspended in 0.1 ml of Matrigel solution (50% (v/v) Matrigel in PBS) and inoculated into the mammary fat pads of the mice. […] Compounds was administered P.O. once every day for 32 days. Tumor size and mouse body weight were measured once every 4 days, and tumor volume (mm3) was calculated using the equation: length×(width)^2×0.5. At the end of experiments, mice were sacrificed and tumor nodules were dissected and weighed.

Where two headings read alike, the source gives them in different places.

By IC50 is commonly meant the concentration needed to halve the response being measured. Regarding `COc1cc(/C=C/C(=O)/C=C(O)/C=C/c2ccc(O)c(OC)c2)ccc1O` [Curcumin, (E,E)-1,7-bis (4-hydroxy-3-methoxyphenyl)-1,6-heptadiene-3,5-dione], the IC50 turned out to be 38.8 ± 3.35 µM in data set [1] (MDA-MB-231, 24 h, read-out: IC50 24 hours); 22.1 ± 2.97 µM in data set [1] (MDA-MB-231, 48 h, read-out: IC50 48 hours); 16.2 µM in data set [1] (MDA-MB-231, treated 72 hours, read-out: IC50 72 hours); 78 ± 11.2 µM in data set [2] (HCT-116, treated 24 hours, read-out: IC50 24 hours); 26.3 ± 1.38 µM in [2] (HCT-116, treated 48 hours, read-out: IC50 48 hours); 13.8 ± 0.5 µM in data set [2] (HCT-116, treated 72 hours, read-out: IC50 72 hours). Further, the IC50 stood at 57.1 ± 10.1 µM in the data set with PC3 prostate cancer cell (PC-3, treated 24 hours, read-out: IC50 24 hours); 30 ± 0.72 µM in the data set with PC3 prostate cancer cell (PC-3, treated 48 hours, read-out: IC50 48 hours); 18.8 ± 1.31 µM with PC3 prostate cancer cell (PC-3, treated 72 hours, read-out: IC50 72 hours); 47.9 ± 3.9 µM with T47D; 42.9 ± 2.36 µM with MCF-7; 32.4 ± 1.41 µM with MDA-MB-453. Besides, the IC50 in the data set with BT-474 worked out at 30.1 ± 1.42 µM; in the data set with SKBR-3 it was 42.8 ± 1.47 µM; in the data set with MDA-MB-468, 42.9 ± 2.35 µM; in the data set on MDA-MB-157 it was 40.4 ± 3.26 µM; with HS-578T, 55.5 ± 1.39 µM; in [3], 58.6 ± 4.03 µM. This molecule also yielded an IC50 in [3] (Homo sapiens, MDA-MB-231, 24 h) of 57.6 µM. Besides, in the data set with MDA-MB-231 Xenograft, the “body weight, behavior change and blood chemistry (serology detection)” value is recorded as “no significant difference”.
